Values quoted from earlier work as cited in patent US11058615B1, “Cosmetic dermal serum with skin rejuvenation properties” (Key Element LLC, priority 2018, dated 2021).

Key:
hyperpigmentation = hyperpigmentation caused by exposure to UVA and UVB
skin blemishes = settings: recent clinical studies (ncbi.nlm.nih.gov/pubmed/18492184)

O=C1O[C@H]([C@@H](O)CO)C([O-])=C1OP(=O)([O-])[O-].[Na+].[Na+].[Na+] [SAP, Sodium Ascorbyl Phosphate]
efficacy in helping to normalize skin tone (hyperpigmentation): excellent efficacy
efficacy to fight skin blemishes (skin blemishes): significant efficacy
